ChEMBL document CHEMBL5316308, “BET-HDAC Dual Inhibitors for Combinational Treatment of Breast Cancer and Concurrent Candidiasis” (J Med Chem, 2023)
pIC50: −log10 of the molar value. ≈ marks a conversion by molar mass, not a printed value. Calls of active or inactive are those of the source. The calls are words filed in the database; no cut-off is given here.

How the values were obtained:
[1] = tested on: Candida albicans; assay: Antifungal activity FLC-resistant Candida albicans 0304103 assessed as hyphal formation at 32 ug/ml incubated for 3 hrs by inverse fluorescent microscopy; type: functional, organism-based; settings: dose 32.0 µg/ml
[2] = tested on: Candida albicans; assay: Antifungal activity against azole-resistant Candida albicans 0304103 assessed as fungal growth inhibition at 1 to 4 ug/ml measured upto 24 hrs by absorbance based assay; type: functional, organism-based; settings: dose 1-4 µg/ml
[3] = tested on: HEL; assay: Antiproliferative activity against human HEL cells assessed as cell growth inhibition incubated for 24 hrs by CCK-8 assay; type: functional, cell-based
[4] = tested on: Cryptococcus neoformans; assay: Antifungal activity against Cryptococcus neoformans H99 assessed as fungal growth inhibition measured after 48 hrs by CLSI based micro-dilution broth method; type: functional
[5] = target: Bromodomain-containing protein 4 (Homo sapiens, UniProt O60885); assay: Inhibition of recombinant BRD4 (unknown origin) incubated for 120 mins by TR-FRET assay relative to control; set-up: concentration or dose not given beside the values
[6] = tested on: MDA-MB-231; assay: Antiproliferative activity against human MDA-MB-231 cells assessed as cell growth inhibition incubated for 24 hrs by CCK-8 assay; type: functional, cell-based; settings: MDA-MB-231, 24 h
[7] = tested on: Candida albicans; type: functional, 0304103; settings: time 48 hrs
Description: Synergistic antifungal activity against azole-resistant Candida albicans 0304103 assessed as fractional inhibitory concentration index measured after 48 hrs in presence of FLC by CLSI based micro-dilution broth method

[8] = tested on: Candida albicans; assay: microbe, parasite or virus in culture; type: functional; settings: 0304103, time 48 hrs
Description: Synergistic antifungal activity against azole-resistant Candida albicans 0304103 assessed as fungal growth inhibition measured after 48 hrs in presence of FLC by CLSI based micro-dilution broth method

[9] = target: Histone deacetylase 1 (Homo sapiens, UniProt Q13547); assay: Inhibition of full-length recombinant human HDAC1 (1 to 482 residues) expressed in baculovirus infected insect cells using Ac-Leu-Gly-Lys(Ac)-AMC as substrate incubated for 30 mins by fluorescence based assay; set-up: species or system Insect cell
Sequence of Histone deacetylase 1 (Q13547 whole entry, the tested form may be a part): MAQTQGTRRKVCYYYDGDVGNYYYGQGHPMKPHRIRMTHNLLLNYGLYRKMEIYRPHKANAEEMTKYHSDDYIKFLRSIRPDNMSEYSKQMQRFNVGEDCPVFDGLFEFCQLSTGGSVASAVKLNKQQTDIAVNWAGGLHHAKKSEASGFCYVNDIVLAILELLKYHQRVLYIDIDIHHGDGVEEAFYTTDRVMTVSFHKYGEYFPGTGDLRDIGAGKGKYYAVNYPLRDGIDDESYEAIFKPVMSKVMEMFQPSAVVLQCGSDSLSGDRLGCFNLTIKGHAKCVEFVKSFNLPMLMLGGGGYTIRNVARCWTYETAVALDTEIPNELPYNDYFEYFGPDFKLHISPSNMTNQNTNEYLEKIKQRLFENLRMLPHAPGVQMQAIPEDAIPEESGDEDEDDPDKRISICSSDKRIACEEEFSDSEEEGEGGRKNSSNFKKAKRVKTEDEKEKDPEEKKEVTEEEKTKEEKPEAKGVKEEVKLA

[10] = tested on: HL-60; assay: Antiproliferative activity against human HL-60 cells assessed as cell growth inhibition incubated for 24 hrs by CCK-8 assay; type: functional, cell-based; settings: HL-60, 24 h
[11] = tested on: K562; assay: Antiproliferative activity against human K562 cells assessed as cell growth inhibition incubated for 24 hrs by CCK-8 assay; type: functional, cell-based; settings: K562, 24 h
[12] = tested on: Candida albicans; assay: microbe, parasite or virus in culture; type: functional; settings: 0304103, time 48 hrs; remark: listed apart in the source
Description: Synergistic antifungal activity against azole-resistant Candida albicans 0304103 assessed as fungal growth inhibition measured after 48 hrs by CLSI based micro-dilution broth method

[13] = tested on: MDA-MB-231; assay: Induction of apoptosis in human MDA-MB-231 cells assessed as late apoptotic cells at 5 uM incubated for 48 hrs by Annexin V-FITC/PI staining based flow cytometry relative to control; type: functional
[14] = tested on: MDA-MB-231; assay: Induction of apoptosis in human MDA-MB-231 cells assessed as late apoptotic cells at 2.5 uM incubated for 48 hrs by Annexin V-FITC/PI staining based flow cytometry relative to control; type: functional
[15] = tested on: MDA-MB-231; assay: Induction of apoptosis in human MDA-MB-231 cells assessed as late apoptotic cells at 10 uM incubated for 48 hrs by Annexin V-FITC/PI staining based flow cytometry relative to control; type: functional
[16] = tested on: Candida albicans; assay: Synergistic antifungal activity against Candida albicans 0304103 infected in ICR mouse assessed as decrease in kidney fungal load at 20 mg/kg, ip for 5 consecutive days; type: functional, organism-based; settings: time 5.0 day

Row | Structure (SMILES) | Activity [1] | Activity [2] | pIC50 [3] | MIC80 [4] | inhibition [5] | pIC50 [6] | fractional inhibitory concentration index (FICI) [7] | MIC80 [8] | pIC50 [9] | pIC50 [10] | pIC50 [11] | MIC80 [12] | Activity [13] | Activity [14] | Activity [15] | Activity [16]
1 | OC(Cn1cncn1)(Cn1cncn1)c1ccc(F)cc1F | Active | inactive |  |  |  |  |  |  |  |  |  |  |  |  |  | 
2 | COc1cc2c(cc1-c1c(C)noc1C)[nH]c1nc(C)nc(NCc3ccc(C(=O)NO)cc3)c12 |  |  | 5.57 | 64 µg/mL (≈ 135 µM) | 97.5% | 5.08 | 0.062 | 2 µg/mL (≈ 4.23 µM) | 6.35 | 5.62 | 5.74 | > 64 µg/mL |  |  |  | 
3 | O=C(CCCCCCC(=O)Nc1ccccc1)NO [VORINOSTAT] |  |  |  |  |  |  |  |  |  |  |  |  | 22.96% | 16.91% | 27.19% | inactive
4 | COc1cc2c(cc1-c1c(C)noc1C)[nH]c1ncnc(NCCCCCCCC(=O)NO)c12 |  |  | 4.82 | 2 µg/mL (≈ 4.29 µM) | 85.8% | 5.42 | 0.062 | 2 µg/mL (≈ 4.29 µM) | 7.43 | < 4.30 | 5.05 | > 64 µg/mL |  |  |  | 
5 | COc1cc2c(cc1-c1c(C)noc1C)[nH]c1ncnc(NCCCCCC(=O)Nc3ccc(/C=C/C(=O)NO)cc3)c12 |  |  | 5.05 | 2 µg/mL (≈ 3.43 µM) | 56.1% | 4.85 | 0.26 | 1 µg/mL (≈ 1.71 µM) | 6.60 | 5.42 | 5.09 | > 64 µg/mL |  |  |  | 
6 | COc1cc2c(cc1-c1c(C)noc1C)[nH]c1nc(C)nc(NCCCCCCCC(=O)NO)c12 |  |  | 5.48 | 64 µg/mL (≈ 133 µM) | 86.2% | 5.11 | 0.12 | 4 µg/mL (≈ 8.32 µM) | 6.70 | < 4.30 | 5.52 | > 64 µg/mL |  |  |  | 
7 | COc1cc2c(cc1-c1c(C)noc1C)[nH]c1nc(C)nc(NCCCCCC(=O)Nc3ccc(C(=O)NO)cc3)c12 |  |  | < 4.30 | 4 µg/mL (≈ 7 µM) | 79.7% | 4.80 | 0.047 | 1 µg/mL (≈ 1.75 µM) | 7.07 | 5.19 | 4.74 | > 64 µg/mL |  |  |  | 
8 | COc1cc2c(cc1-c1c(C)noc1C)[nH]c1nc(C)nc(NCCCCCC(=O)NO)c12 |  |  | 5.15 | 32 µg/mL (≈ 70.7 µM) | 90.8% | < 4.30 | 0.16 | 2 µg/mL (≈ 4.42 µM) | 6.91 | 5.10 | 4.77 | > 64 µg/mL |  |  |  | 
9 | COc1cc2c(cc1-c1c(C)noc1C)[nH]c1ncnc(NCCCCC(=O)NO)c12 |  |  | < 4.30 | > 64 µg/mL | 11.1% | < 4.30 | >2 | > 64 µg/mL | < 5.70 | < 4.30 | < 4.30 | > 64 µg/mL |  |  |  | 
10 | COc1cc2c(cc1-c1c(C)noc1C)[nH]c1ncnc(Nc3ccc(C(=O)NO)cc3)c12 |  |  | < 4.30 | 64 µg/mL (≈ 144 µM) | 53.4% | 4.72 | 0.25 | 8 µg/mL (≈ 18 µM) | 6.01 | 5.17 | < 4.30 | 64 µg/mL (≈ 144 µM) |  |  |  | 
11 | COc1cc2c(cc1-c1c(C)noc1C)[nH]c1nc(C)nc(Nc3ccc(C(=O)NO)cc3)c12 |  |  | < 4.30 | > 64 µg/mL | 79.8% | 5.03 | 0.07 | 0.5 µg/mL (≈ 1.09 µM) | 6.40 | 5.64 | < 4.30 | > 64 µg/mL |  |  |  | 
12 | COc1cc2c(cc1-c1c(C)noc1C)[nH]c1ncnc(Nc3ccc(/C=C/C(=O)NO)cc3)c12 |  |  | < 4.30 | 16 µg/mL (≈ 34 µM) | 67.5% | 5.20 | 0.25 | 8 µg/mL (≈ 17 µM) | < 5.70 | < 4.30 | 4.96 | > 64 µg/mL |  |  |  | 
13 | COc1cc2c(cc1-c1c(C)noc1C)[nH]c1nc(C)nc(Nc3ccc(/C=C/C(=O)NO)cc3)c12 |  |  | < 4.30 | 16 µg/mL (≈ 33 µM) | 55.2% | 4.96 | 0.13 | 0.5 µg/mL (≈ 1.03 µM) | 5.92 | < 4.30 | < 4.30 | > 64 µg/mL |  |  |  | 
14 | COc1cc2c(cc1-c1c(C)noc1C)[nH]c1nc(C)nc(NCCCCCC(=O)Nc3ccc(/C=C/C(=O)NO)cc3)c12 |  |  | < 4.30 | 4 µg/mL (≈ 6.69 µM) | 58.3% | 4.80 | 0.078 | 1 µg/mL (≈ 1.67 µM) | 5.96 | 5.51 | 5.22 | > 64 µg/mL |  |  |  | 
15 | COc1cc2c(cc1-c1c(C)noc1C)[nH]c1nc(C)nc(Nc3cccc(C(=O)NO)c3)c12 |  |  | < 4.30 | > 64 µg/mL | 14.8% | 5.01 | >2 | > 64 µg/mL | < 5.70 | < 4.30 | 5.42 | > 64 µg/mL |  |  |  | 
16 | COc1cc2c(cc1-c1c(C)noc1C)[nH]c1ncnc(NCCCCCC(=O)NO)c12 |  |  | 4.89 | 32 µg/mL (≈ 73 µM) | 64.7% | < 4.30 | 0.5 | 0.5 µg/mL (≈ 1.14 µM) | 6.69 | < 4.30 | 4.77 | > 64 µg/mL |  |  |  | 
